Results from patent US10940139B2, “Compounds that interact with the Ras superfamily for the treatment of cancers, inflammatory diseases, rasopathies, and fibrotic disease” (Shy Therapeutics LLC, priority 2017, dated 2021).

Experiments:
Format in all cases: cell-based
[1] = system: MIA-PACA2 pancreatic cancer cell lines; test: Cell proliferation assay (CellTiter 96 AQueous One); conditions: Homo sapiens, MIA PaCa-2; at 30 μM, MIA-PACA2
Procedure: Cell lines: Tumor-derived pancreatic cancer cell lines MIA-PACA2 were purchased from ATCC and grown in complete DMEM-High Glucose medium supplemented with penicillin (100 U/mL), streptomycin (100 μg/mL), and 10% heat-inactivated FBS at 37° C. in a humidified incubator with 5% CO2.
Method: Cells are plated at 1000 cells/well density in 96-wells plate, starved ON, and the next day tested small molecules are added to the cells in the final concentration of 30 μM with 0.3% DMSO 3 hours prior to 10% FBS addition. After serum addition cells are incubated for 6 days at 37° C. in a humidified incubator with 5% CO2. For IC50 value determination, serial dilutions of compounds were added to cells under the same conditions.
Assay: At the end of the incubation period, cell cultures are tested using the CellTiter 96® AQueous One Solution Cell Proliferation Assay kit (Promega Corporation, Madison, Wis.) according to the manufacturer specifications. Briefly, assay is performed by adding 20 μl of the CellTiter 96 Aqueous One Solution Reagent directly to culture wells, followed by for 1-4 hours incubation at 37° C. in a humidified incubator with 5% CO2. At the end of incubation time, absorbance at 492 nm is recorded with the 96-well plate reader Eppendorf AF2200, and degree of small molecule-dependent proliferation inhibition is calculated from raw data assuming No Serum cells value as 100%.

[2] = system: IL6 production in RAW 264.7 macrophage cell line; test: Mouse IL6 quantification assay (LPS-stimulated macrophages, ELISA); conditions: RAW264.7, RAW 264.7 murine leukemia virus transformed macrophage cell lines, LPS stimulation, read-out: IL-6 % Inhibition at 30 μM
[3] = system: TNFα production in RAW 264.7 macrophage cell line; test: Mouse TNF alpha quantification assay (LPS-stimulated macrophages, ELISA); conditions: RAW264.7, RAW 264.7 murine leukemia virus transformed macrophage cell lines, LPS stimulation, read-out: TNF-α % Inhibition at 30 μM

Row | SMILES | inhibition at 30 µM [1] [%] | inhibition at 30 µM [2] [%] | inhibition at 30 µM [3] [%]
1 | COc1cc(CNc2nc(-c3ccccn3)nc3scc(-c4ccccc4)c23)ccc1OCC(N)=O | 76 to 100 |  | 
2 | OCCn1ccc2c1CCCC2Nc1nc(-c2ccccn2)nc2scc(-c3ccccc3)c12 (centres unmarked) | 76 to 100 |  | 
3 | Cc1[nH]nc(CCCN(C)c2nc(-c3ccccn3)nc3sc(-c4ccccc4)cc23)c1C#N | 76 to 100 |  | 
4 | CC(=O)C1CCN(c2nc(-c3ccccn3)nc3scc(-c4ccccc4)c23)CC1 | 76 to 100 |  | 
5 | O=C(COn1ccnc1)Nc1nc(-c2ccccn2)nc2sccc12 | 76 to 100 |  | 
6 | O=C(CCc1cnn(-c2ccccc2)c1)Nc1nnc(-c2ccccn2)[nH]1 [drawing 1383] | 76 to 100 |  | 
7 | CC(C)NC(=O)Nc1cccc(C(=O)Nc2nnc(-c3ccccn3)[nH]2)c1 [drawing 1384] | 25 to 50 |  | 
8 | COc1ccc(CCC(=O)Nc2nnc(-c3ccccn3)[nH]2)cc1F [drawing 1385] | 1 to 25 |  | 
9 | COC1CCN(c2nc(-c3nccn3C)nc3sc(-c4ccccc4)c(-c4ccccc4)c23)C1 (centres unmarked) [drawing 2398] |  | 76 to 100 | 76 to 100
10 | CCOCCOc1nc(-c2nccn2C)nc2sc(-c3ccccc3)c(-c3ccccc3)c12 [drawing 2399] |  | 1 to 25 | 26 to 50
11 | CCN(CC)CCOc1nc(-c2nccn2C)nc2sc(-c3ccccc3)c(-c3ccccc3)c12 [drawing 2400] |  | 76 to 100 | 76 to 100
12 | COCCNc1nc(-c2ccncn2)nc2sc(-c3ccccc3)c(-c3ccccc3)c12 [drawing 2401] |  | 76 to 100 | 51 to 75
13 | CCOCCNc1nc(-c2nccn2C)nc2sc(-c3ccccc3)c(-c3ccccc3)c12 [drawing 2402] |  | 76 to 100 | 76 to 100
14 | Cn1ccnc1-c1nc(NCCOC2CC2)c2c(-c3ccccc3)c(-c3ccccc3)sc2n1 [drawing 2403] |  | 76 to 100 | 76 to 100
15 | COCC(C)Nc1nc(-c2nccn2C)nc2sc(-c3ccccc3)c(-c3ccccc3)c12 (centres unmarked) [drawing 2404] |  | 76 to 100 | 76 to 100
16 | CC(CO)Nc1nc(-c2nccn2C)nc2sc(-c3ccccc3)c(-c3ccccc3)c12 (centres unmarked) [drawing 2405] |  | 51 to 75 | 1 to 25
17 | Cn1ccnc1-c1nc(NCCCO)c2c(-c3ccccc3)c(-c3ccccc3)sc2n1 [drawing 2406] |  | 51 to 75 | 26 to 50
18 | COCCNc1nc(-c2nccn2C)nc2sc(-c3ccccc3)c(-c3ccccc3Cl)c12 [drawing 2407] |  | 51 to 75 | 1 to 25
19 | COCCNc1nc(-c2nccn2C)nc2sc(-c3ccccc3Cl)c(-c3ccccc3)c12 [drawing 2408] |  | 1 to 25 | 1 to 25
20 | COCCNc1nc(-c2nccn2C)nc2sc(-c3ccncc3)c(-c3ccccc3)c12 [drawing 2409] |  | 76 to 100 | 51 to 75

Row | SMILES | inhibition at 30 µM [1] [%] | inhibition at 30 µM [2] [%] | inhibition at 30 µM [3] [%]
21 | COCCNc1nc(-c2cn(C)cn2)nc2sc(-c3ccccc3)c(-c3ccccc3)c12 [drawing 2410] |  | 76 to 100 | 76 to 100
22 | COCCNc1nc(-c2nccn2C)nc2sc(C)c(-c3ccccc3)c12 [drawing 2411] |  | 1 to 25 | 26 to 50
23 | COCCNc1nc(-c2cn(C)cn2)nc2sc(C)c(-c3ccccc3)c12 [drawing 2412] |  | 1 to 25 | 26 to 50
24 | COCCNc1nc(-c2nccn2C)nc2sc(-c3cccc(OC)c3)c(-c3ccccc3)c12 [drawing 2413] |  | 76 to 100 | 76 to 100
25 | CC(C)COc1ccc(-c2c(-c3ccccc3)sc3c(O)nc(-c4nccn4C)nc23)cn1 [drawing 2414] |  | 51 to 75 | 1 to 25
26 | Cn1ccnc1-c1nc(O)c2sc(-c3ccccc3)c(-c3ccccc3)c2n1 [drawing 2415] |  | 1 to 25 | 0
27 | COCCNc1nc(-c2nccn2C)nc2sc(-c3ccccc3)c(-c3ccc(OC)cc3)c12 [drawing 2416] |  | 76 to 100 | 51 to 75
28 | COCCNc1nc(-c2nccn2C)nc2sc(C3CCOCC3)c(-c3ccccc3)c12 [drawing 2417] |  | 76 to 100 | 76 to 100
29 | COCCNc1nc(-c2cccc(N)n2)nc2sc(-c3ccccc3)c(-c3ccccc3)c12 [drawing 2418] |  | 26 to 50 | 26 to 50
30 | Cn1ccnc1-c1nc(O)c2sc(-c3ccccc3)c(-c3cccc(C(F)(F)F)c3)c2n1 [drawing 2419] |  | 26 to 50 | 26 to 50
31 | COc1ccc(-c2c(-c3ccccc3)sc3c(O)nc(-c4nccn4C)nc23)cn1 [drawing 2420] |  | 26 to 50 | 26 to 50
32 | Cc1sc2c(O)nc(-c3nccn3C)nc2c1-c1ccccc1 [drawing 2421] |  | 76 to 100 | 26 to 50
33 | Cn1ccnc1-c1nc(O)c2sc(-c3ccccc3)c(-c3ccccc3Cl)c2n1 [drawing 2422] |  | 76 to 100 | 51 to 75
34 | COCCNc1nc(-c2nccn2C)nc2sc(-c3ccccc3)c(-c3ccncc3)c12 [drawing 2423] |  | 51 to 75 | 1 to 25
35 | COCCNc1nc(-c2nccn2C)nc2sc(-c3ccc(OC)cc3)c(-c3ccccc3)c12 [drawing 2424] |  | 76 to 100 | 51 to 75
36 | Cn1ccnc1-c1nc(O)c2scc(-c3cccc(C(F)(F)F)c3)c2n1 [drawing 2425] |  | 76 to 100 | 51 to 75
37 | Cc1sc2c(O)nc(-c3nccn3C)nc2c1-c1cccc(C(F)(F)F)c1 [drawing 2426] |  | 0 | 0
38 | Cc1sc2c(O)nc(-c3nccn3C)nc2c1-c1ccc(OCC(C)C)nc1 [drawing 2427] |  | 1 to 25 | 1 to 25
39 | COc1ccc(-c2c(C)sc3c(O)nc(-c4nccn4C)nc23)cn1 [drawing 2428] |  | 1 to 25 | 1 to 25
40 | Cc1sc2c(O)nc(-c3nccn3C)nc2c1-c1ccccc1Cl [drawing 2429] |  | 26 to 50 | 1 to 25

Row | SMILES | inhibition at 30 µM [1] [%] | inhibition at 30 µM [2] [%] | inhibition at 30 µM [3] [%]
41 | Cn1ccnc1-c1nc(O)c2scc(-c3cccc(OC(F)(F)F)c3)c2n1 [drawing 2430] |  | 76 to 100 | 51 to 75
42 | Cn1cnc(-c2nc(O)c3scc(-c4cccc(C(F)(F)F)c4)c3n2)c1 [drawing 2431] |  | 0 | 0
43 | CC(C)COc1ccc(-c2csc3c(O)nc(-c4cn(C)cn4)nc23)cn1 [drawing 2432] |  | 76 to 100 | 26 to 50
44 | Cn1cnc(-c2nc(O)c3scc(-c4cccc(OC(F)(F)F)c4)c3n2)c1 [drawing 2433] |  | 0 | 0
45 | Oc1nc(-c2ccncn2)nc2c(-c3cccc(C(F)(F)F)c3)csc12 [drawing 2434] |  | 26 to 50 | 0
46 | Oc1nc(-c2ncccn2)nc2c(-c3cccc(C(F)(F)F)c3)csc12 [drawing 2435] |  | 1 to 25 | 26 to 50
47 | CC(C)Oc1ccc(-c2csc3c(O)nc(-c4nccn4C)nc23)cc1F [drawing 2436] |  | 1 to 25 | 0
48 | Cc1sc2c(O)nc(-c3nccn3C)nc2c1-c1ccc(OC(C)C)c(F)c1 [drawing 2437] |  | 51 to 75 | 0
49 | CC(C)Oc1ccc(-c2c(-c3ccccc3)sc3c(O)nc(-c4nccn4C)nc23)cc1F [drawing 2438] |  | 1 to 25 | 0
50 | COc1ccc(-c2csc3c(O)nc(-c4nccn4C)nc23)cn1 [drawing 2440] |  | 76 to 100 | 76 to 100
51 | Cn1ccnc1-c1nc(O)c2scc(-c3ccccc3)c2n1 [drawing 2441] |  | 76 to 100 | 51 to 75
52 | Cn1ccnc1-c1nc(O)c2scc(-c3ccccc3Cl)c2n1 [drawing 2442] |  | 51 to 75 | 1 to 25
53 | Cn1ccnc1-c1nc(O)c2scc(-c3ccc(F)cc3F)c2n1 [drawing 2443] |  | 51 to 75 | 1 to 25
54 | Cn1ccnc1-c1nc(O)c2scc(-c3cccc(Cl)c3)c2n1 [drawing 2444] |  | 51 to 75 | 0
55 | COC(C)(C)c1ccc(-c2csc3c(O)nc(-c4nccn4C)nc23)cc1 [drawing 2445] |  | 26 to 50 | 0
56 | Cn1ccnc1-c1nc(O)c2scc(-c3ccc(C(C)(C)C)cc3)c2n1 [drawing 2446] |  | 1 to 25 | 0
57 | COCCNc1nc(-c2ccccn2)nc2sc(-c3ccccc3)c(-c3ccccn3)c12 [drawing 2447] |  | 0 | 0
58 | Cc1sc2c(O)nc(-c3nccn3C)nc2c1-c1ccc(F)cc1F [drawing 2448] |  | 51 to 75 | 0
59 | COCCNc1nc(-c2nccn2C)nc2sc(-c3ccccc3)c(-c3ccccn3)c12 [drawing 2449] |  | 76 to 100 | 76 to 100
